From publication PMC9917184, “Synthesis and Biological Evaluation of Potential Oncoimmunomodulator Agents” (International Journal of Molecular Sciences, 2023) come the findings set out here.

Read-outs that look alike come from different tables or passages of the source.

The subject of one test is c-Myc. Briefly: Total c-Myc relative quantification by flow cytometry in cancer cell lines. The test is classed as cell-based, human. The settings on record: 24 h. On the procedure: (§1) The effect of these triazole derivates on c-Myc and PD-L1 was measured in three different cancer cell lines (HT-29, MCF-7, A-549) by flow cytometry. Thus, cells were incubated for 24 h with the corresponding compound at a concentration of 100 μM. Dimethyl sulfoxide (DMSO)-treated cells were used as the negative control, and a PD-L1 inhibitor, BMS-8 [29, 31], was used as a reference control. After permeabilization and fixation, cells were treated with anti-PD-L1 conjugated to AlexaFluor®647 and anti-c-Myc conjugated to fluorescein to determine the amount of both targets related to the negative control. Table 1 show the results in terms of the percentage of the detected target in relation to the negative control. This assay was carried out on cancer cell lines HT-29, MCF-7, and A-549.
(§2) To study the effect of the compounds on every biological target in cancer cell lines, the compounds were used at a 100 µM dose.
(§3) For the assay, 10^5 cells per well were incubated for 24 h with the corresponding dose of the tested compound in a total volume of 500 μL of their growth media.
(§4) To detect total PD-L1 and c-Myc, after the cell treatments, they were collected and fixed with 4% in PBS paraformaldehyde. After fixation, a treatment with 0,5% in PBS Triton™ X-100 was performed, and finally, cells were stained with FITC Mouse monoclonal Anti-c-Myc (ab223913) and Alexa Fluor® 647 Rabbit monoclonal Anti-PD-L1 (ab215251).
(In general: In flow cytometry, cells or beads pass a laser one at a time.)

Another test concerns HT-29. Briefly: HT-29 cell viability in co-culture with Jurkat T cells (flow cytometry count). The test is classed as cell-based, human. The settings on record: 24 h; for viability at 100 µM: Homo sapiens, HT-29/Jurkat T co-culture, IFN-γ stimulated, read-out: percentage of living HT-29 cells relative to non-treated co-cultures; for inhibition rate of HT-29 cell viability: co-cultured with Jurkat T cells, 100 μM. How it is done:
(§5) The effect of the synthesized compounds on tumor cell proliferation in the presence of PD-1-expressing Jurkat T cells was also studied. This assay was carried out, as in the previous experiments, in the HT29, MCF7, and A549 cell lines (see Table 4). Interferon γ-stimulated cancer cells were treated for 24 h with the compounds at 100 μM in presence of Jurkat T cells. Then, cells were counted using flow cytometry. The percentage of living cells relative to non-treated co-cultures (control) was established for both cancer and immune cells in every co-culture.
(§6) To study the effect of the compounds on the cell viability in co-culture with Jurkat T cells or THP-1 cells, 10^5 or 2 × 10^5 of the corresponding cancer cells line per well were seeded and incubated for 24 h, then the medium was changed by one cell culture medium supplemented with IFN-γ (10 ng/mL; human, Invitrogen®) and containing 5 × 10^5 or 10^5 Jurkat T cells or THP-1, respectively, per well and 100 µM of the corresponding compound or DMSO for the […] control. After 24 h/48 h of incubation, supernatants were collected to determine Jurkat T or THP-1 living cells, and on the other hand, corresponding cancer cells were collected with trypsin. Both types of suspension cells were fixed with 4% in PBS paraformaldehyde and counted by flow cytometry.

The next test deals with PD-L1 (Homo sapiens, UniProt Q9NZQ7). Briefly: Total PD-L1 relative quantification by flow cytometry in cancer cell lines. It counts as cell-based. Also on record: Alexa Fluor® 647 Rabbit monoclonal Anti-PD-L1 (ab215251); endogenous in cells; host or cells: HT-29. The conditions noted are these: 24 h, total PD-L1 relative to negative control (DMSO). On the procedure:
as §1, §2, §3, §4

A further test relates to Jurkat T cells. Briefly: Jurkat T cell viability in co-culture with cancer cells (flow cytometry count). The test is classed as cell-based. The settings on record: Homo sapiens, 24 h, read-out: percentage of living Jurkat cells relative to non-treated co-cultures. How it is done: as §5, §6
For another test, the target named is T1, membrane PD-L1 (Homo sapiens, UniProt Q9NZQ7).
T1 construct: Alexa Fluor® 647 Rabbit monoclonal Anti-PD-L1 (ab215251); endogenous in cells; host or cells: HT-29, MCF-7, A-549 (A17: MCF-7 only; A14: IFN-gamma-stimulated cancer cells co-cultured with Jurkat T cells)
T1 sequence (Q9NZQ7 19-290): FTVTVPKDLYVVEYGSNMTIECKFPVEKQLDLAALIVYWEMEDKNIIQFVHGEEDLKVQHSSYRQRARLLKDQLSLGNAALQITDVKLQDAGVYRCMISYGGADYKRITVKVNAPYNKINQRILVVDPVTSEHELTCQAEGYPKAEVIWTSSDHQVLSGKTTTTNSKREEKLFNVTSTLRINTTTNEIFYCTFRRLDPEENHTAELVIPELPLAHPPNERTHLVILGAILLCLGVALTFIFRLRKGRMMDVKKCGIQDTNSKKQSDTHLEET
As to the kind of experiment: Membrane PD-L1 relative quantification by flow cytometry in cancer cells co-cultured with Jurkat T cells. The test is classed as cell-based. The conditions noted are these: Jurkat, 24 h; for remaining activity at 100 µM: relative to non-treated co-cultures, read-out: % PDL1 (membrane); for inhibition at 100 µM: HT-29 co-cultured with Jurkat T cells, read-out: membrane PD-L1 inhibition rate. How it is done:
(§7) We determined by flow cytometry the effect of these compounds on the expression of membrane PD-L1 in cancer cells when they were co-cultured with immune cells. Thus, interferon γ-stimulated cancer cells were treated for 24 h with the compounds at 100 μM in presence of Jurkat T cells. Then, cells were fixed and treated with anti-PD-L1 conjugated to AlexaFluor®647. We took advantage of the versatility of flow cytometry to simultaneously measure the expression of membrane VEGFR-2 by using anti-VEGFR-2 conjugated to fluorescein.
(§8) To study the effect of the compounds on every biological target in co-cultured cancer cell lines, the compounds were incubated for 24h as described before.
(§9) To detect membrane PD-L1 and VEGFR-2, after the cell treatments, they were collected, fixed with 4% in PBS paraformaldehyde, and stained with FITC Mouse monoclonal Anti-Human VEGFR-2 (ab184903) and Alexa Fluor® 647 Rabbit monoclonal Anti-PD-L1 (ab215251).

In the next test the test system is membrane VEGFR-2. As to the kind of experiment: Membrane VEGFR-2 relative quantification by flow cytometry in cancer cells co-cultured with Jurkat T cells. It counts as cell-based, human. The conditions noted are these: 100 μM, 24 h, relative to non-treated co-cultures. On the procedure: as §7, §8, §9
Another test concerns A-549. As to the kind of experiment: A-549 cell viability in co-culture with Jurkat T cells (flow cytometry count). The test is classed as cell-based, human. The conditions noted are these: 24 h; for viability at 100 µM: Homo sapiens, A549, A-549/Jurkat T co-culture, IFN-γ stimulated, read-out: percentage of living A-549 cells relative to non-treated co-cultures; for inhibition rate of A-549 cell viability: co-cultured with Jurkat T cells, 100 μM. How it is done: as §5, §6

The test system of another test is MCF-7. Briefly: MCF-7 cell viability in co-culture with Jurkat T cells (flow cytometry count). The test is classed as cell-based, human. The settings on record: Homo sapiens, MCF7, MCF-7/Jurkat T co-culture, IFN-γ stimulated, 24 h, read-out: percentage of living MCF-7 cells relative to non-treated co-cultures. On the procedure: as §5, §6
The mark [1] stands for this setting: A-549, 100 µM, relative to negative control (DMSO).
Setting [2] is: HT-29, 100 µM, detected target relative to negative control (DMSO).
Setting [3] is: MCF-7, 100 µM, relative to negative control (DMSO).
Where [4] appears, read: A549 co-cultured with Jurkat T cells.
Where [5] appears, read: HT29 co-cultured with Jurkat T cells.
[6] abbreviates: MCF7 co-cultured with Jurkat T cells.

Sequence of PD-L1 (Q9NZQ7 19-290): as above

`OCCc1ccc(CCn2cc(-c3cccc(Br)c3)nn2)cc1` [Compound 6, 2-(4-(2-(4-(3-bromophenyl)-1H-1,2,3-triazol-1-yl)ethyl)phenyl)ethan-1-ol]: the figures for the “% c-Myc” value in the test with c-Myc (setting [1]), with c-Myc (setting [2]) and with c-Myc (setting [3]) were 84 ± 9%, 149 ± 12% and 81 ± 6%, respectively. The viability at 100 µM worked out at 104 ± 4% in the test on HT-29; 119 ± 6% with Jurkat T cells (A-549/Jurkat T co-culture); 116 ± 7% in the test on Jurkat T cells (HT-29/Jurkat T co-culture); 119 ± 1% in the test on Jurkat T cells (MCF-7/Jurkat T co-culture); 75 ± 3% in the test with A-549; 65 ± 8% with MCF-7. The remaining activity at 100 µM on PD-L1 (A549, A-549, 100 µM) was 62 ± 4%; on PD-L1 (HT-29, 100 µM), 104 ± 6%; on PD-L1 (MCF7, MCF-7, 100 µM), 110 ± 4%; on membrane PD-L1 (setting [4]), 75 ± 1%; at membrane PD-L1 (setting [5]), 63 ± 6%; at membrane PD-L1 (setting [6]) it was 66 ± 11%. In addition, the inhibition (commonly the relative decrease from the control value, in per cent) at 100 µM at membrane PD-L1 lay in the range of 40 to 50%. Also, the entries for the “%VEGFR2 (membrane)” value in the test with membrane VEGFR-2 (setting [4]), in the test with membrane VEGFR-2 (setting [5]) and in the test on membrane VEGFR-2 (setting [6]) were 87 ± 7%, 98 ± 2% and 98 ± 6%, respectively. The “inhibition rate of A-549 cell viability” value with A-549 was “around 30%”.

Turning to `COc1ccc(-c2cn(CCc3ccc(CCO)cc3)nn2)cc1` [Compound 10, 2-(4-(2-(4-(4-methoxyphenyl)-1H-1,2,3-triazol-1-yl)ethyl)phenyl)ethan-1-ol], the “% c-Myc” value in the test with c-Myc (setting [1]) was 126 ± 2%; with c-Myc (setting [2]), 83 ± 8%; in the test with c-Myc (setting [3]), 91 ± 6%. Also, the viability at 100 µM with HT-29 is 145 ± 16%; in the test on Jurkat T cells (A-549/Jurkat T co-culture), 100 ± 4%; in the test on Jurkat T cells (HT-29/Jurkat T co-culture), 120 ± 23%; in the test with Jurkat T cells (MCF-7/Jurkat T co-culture), 148 ± 20%; in the test with A-549, 103 ± 4%; with MCF-7 it was 94 ± 2%. The remaining activity at 100 µM amounted to 62 ± 14% at PD-L1 (A549, A-549, 100 µM); 82 ± 2% at PD-L1 (HT-29, 100 µM); 114 ± 9% at PD-L1 (MCF7, MCF-7, 100 µM); 84 ± 6% at membrane PD-L1 (setting [4]); 126 ± 7% at membrane PD-L1 (setting [5]); 48 ± 7% at membrane PD-L1 (setting [6]). For the same compound, the “%VEGFR2 (membrane)” value amounted to 107 ± 1% with membrane VEGFR-2 (setting [4]), 94 ± 6% in the test on membrane VEGFR-2 (setting [5]) and 105 ± 3% with membrane VEGFR-2 (setting [6]). For the same compound, the “inhibition rate of A-549 cell viability” value with A-549 was “no activity”.

With `COc1cccc(-c2cn(CCc3ccc(CCO)cc3)nn2)c1` [Compound 12, 2-(4-(2-(4-(3-methoxyphenyl)-1H-1,2,3-triazol-1-yl)ethyl)phenyl)ethan-1-ol], the figures for the “% c-Myc” value in the test with c-Myc (setting [1]), in the test with c-Myc (setting [2]) and in the test on c-Myc (setting [3]) were 113 ± 9%, 84 ± 2% and 81 ± 4%, respectively. Also, the viability at 100 µM in the test on HT-29 is 60 ± 3%; in the test on Jurkat T cells (A-549/Jurkat T co-culture) it was 83 ± 6%; in the test with Jurkat T cells (HT-29/Jurkat T co-culture) it was 104 ± 5%; in the test on Jurkat T cells (MCF-7/Jurkat T co-culture), 123 ± 11%; in the test with A-549, 86 ± 2%; in the test with MCF-7 it was 78 ± 4%. Moreover, the “inhibition rate of HT-29 cell viability” value in the test with HT-29 was “around 40%”. The remaining activity at 100 µM was found to be 67 ± 8% on PD-L1 (A549, A-549, 100 µM); 157 ± 6% on PD-L1 (HT-29, 100 µM); 88 ± 1% on PD-L1 (MCF7, MCF-7, 100 µM); 77 ± 3% on membrane PD-L1 (setting [4]); 88 ± 5% on membrane PD-L1 (setting [5]); 41 ± 2% at membrane PD-L1 (setting [6]). Moreover, the “%VEGFR2 (membrane)” value in the test on membrane VEGFR-2 (setting [4]) came out at 99 ± 6%; in the test on membrane VEGFR-2 (setting [5]) it was 113 ± 4%; with membrane VEGFR-2 (setting [6]), 103 ± 8%. For the same compound, the “inhibition rate of A-549 cell viability” value in the test on A-549 is on record as “around 30%”.

With `OCCc1ccc(CCn2cc(-c3ccc(Br)cc3)nn2)cc1` [Compound 4, 2-(4-(2-(4-(4-bromophenyl)-1H-1,2,3-triazol-1-yl)ethyl)phenyl)ethan-1-ol], the “% c-Myc” value in the test on c-Myc (setting [1]) was 95 ± 2%; in the test with c-Myc (setting [2]) it was 108 ± 8%; in the test on c-Myc (setting [3]) it was 91 ± 8%. Besides, the viability at 100 µM with HT-29 is 115 ± 14%; in the test with Jurkat T cells (A-549/Jurkat T co-culture), 122 ± 11%; in the test with Jurkat T cells (HT-29/Jurkat T co-culture), 145 ± 9%; in the test with Jurkat T cells (MCF-7/Jurkat T co-culture) it was 218 ± 69%; in the test on A-549, 79 ± 5%; with MCF-7, 87 ± 6%. Besides, the “inhibition rate of HT-29 cell viability” value with HT-29 is given as “not active”. Besides, the remaining activity at 100 µM on PD-L1 (A549, A-549, 100 µM) stood at 55 ± 8%; at PD-L1 (HT-29, 100 µM), 111 ± 8%; on PD-L1 (MCF7, MCF-7, 100 µM), 237 ± 19%; on membrane PD-L1 (setting [4]), 80 ± 3%; at membrane PD-L1 (setting [5]), 54 ± 3%; at membrane PD-L1 (setting [6]) it was 89 ± 3%. In addition, on membrane PD-L1, the inhibition at 100 µM is 40 to 50%. In addition, the “%VEGFR2 (membrane)” value was found to be 99 ± 4% with membrane VEGFR-2 (setting [4]), 94 ± 3% in the test with membrane VEGFR-2 (setting [5]) and 121 ± 19% in the test on membrane VEGFR-2 (setting [6]). Besides, in the test on A-549, the “inhibition rate of A-549 cell viability” value is given as “around 30%”.
